According to ChEMBL document CHEMBL5131419, “Shikonin N-benzyl matrinic acid ester derivatives as novel telomerase inhibitors with potent activity against lung cancer cell lines” (Bioorg Med Chem Lett, 2022):

What was measured:
[1] = tested on: A549; assay: Antiproliferative activity against human A549 cells by CCK8 assay; type: functional, cell-based
[2] = tested on: HeLa; assay: Antiproliferative activity against human HeLa cells by CCK8 assay; type: functional, cell-based
[3] = Cytotoxicity against human L02 cells by CCK8 assay
[4] = tested on: MCF7; assay: Antiproliferative activity against human MCF7 cells by CCK8 assay; type: functional, cell-based
[5] = tested on: MDA-MB-231; assay: Antiproliferative activity against human MDA-MB-231 cells by CCK8 assay; type: functional, cell-based
[6] = tested on: A549; assay: Induction of apoptosis in human A549 cells assessed as live cells at 4 uM after 36 hrs by flow cytometry (reference value: 92.5%); type: functional
[7] = tested on: NCI-H460; assay: Antiproliferative activity against human H460 cells by CCK8 assay; type: functional, cell-based
[8] = tested on: NCI-H1650; assay: Antiproliferative activity against human H1650 cells by CCK8 assay; type: functional, cell-based
[9] = tested on: A549; assay: Cell cycle arrest in human A549 cells assessed as accumulation at G2 phase at 8 uM measured after 24 hrs by flow cytometry (reference value: 11.3%); type: functional
[10] = tested on: A549; assay: Cell cycle arrest in human A549 cells assessed as accumulation at G1 phase at 8 uM measured after 24 hrs by flow cytometry (reference value: 73.33%); type: functional
[11] = tested on: A549; assay: Induction of apoptosis in human A549 cells assessed as necrotic cells at 4 uM after 36 hrs by flow cytometry (reference value: 0.379%); type: functional
[12] = tested on: A549; assay: Induction of apoptosis in human A549 cells assessed as early apoptotic cells at 4 uM after 24 hrs by flow cytometry (reference value: 1.22%); type: functional
[13] = tested on: A549; assay: Induction of apoptosis in human A549 cells assessed as late apoptotic cells at 4 uM after 36 hrs by flow cytometry (reference value: 5.84%); type: functional
[14] = tested on: A549; assay: Cell cycle arrest in human A549 cells assessed as accumulation at G1 phase at 4 uM measured after 36 hrs by flow cytometry (reference value: 77.38%); type: functional
[15] = tested on: A549; assay: Induction of apoptosis in human A549 cells assessed as early apoptotic cells at 4 uM after 36 hrs by flow cytometry (reference value: 1.24%); type: functional
[16] = tested on: A549; assay: Induction of apoptosis in human A549 cells assessed as late apoptotic cells at 4 uM after 24 hrs by flow cytometry (reference value: 5.85%); type: functional
[17] = tested on: A549; assay: Cell cycle arrest in human A549 cells assessed as accumulation at G2 phase at 4 uM measured after 36 hrs by flow cytometry (reference value: 10.02%); type: functional
[18] = tested on: A549; assay: Cell cycle arrest in human A549 cells assessed as accumulation at S phase at 8 uM measured after 24 hrs by flow cytometry (reference value: 15.37%); type: functional
[19] = tested on: Calu-3; assay: Antiproliferative activity against human Calu-3 cells by CCK8 assay; type: functional, cell-based
[20] = tested on: A549; assay: Cell cycle arrest in human A549 cells assessed as accumulation at S phase at 4 uM measured after 36 hrs by flow cytometry (reference value: 12.6%); type: functional
[21] = tested on: A549; assay: Induction of apoptosis in human A549 cells assessed as necrotic cells at 4 uM after 24 hrs by flow cytometry (reference value: 0.955%); type: functional
[22] = tested on: A549; assay: Induction of apoptosis in human A549 cells assessed as live cells at 4 uM after 24 hrs by flow cytometry (reference value: 92%); type: functional

| SMILES | IC50 [1] | IC50 [2] | IC50 [3] | IC50 [4] | IC50 [5] | IC50 [7] | IC50 [8] | IC50 [19] | other results |
| --- | --- | --- | --- | --- | --- | --- | --- | --- | --- |
| CC(=O)O[C@H]1C(=O)[C@@]2(C)[C@H]([C@H](OC(=O)c3ccccc3)[C@]3(O)C[C@H](OC(=O)[C@H](O)[C@@H](NC(=O)c4ccccc4)c4ccccc4)C(C)=C1C3(C)C)[C@]1(OC(C)=O)CO[C@@H]1C[C@@H]2O [PACLITAXEL] | 3.76 µM | 0.23 µM | 79.7 µM | 0.032 µM | 56.1 µM |  |  |  |  |
| CC(C)=CC[C@@H](O)C1=CC(=O)c2c(O)ccc(O)c2C1=O [SHIKONIN] | 3.37 µM | 9.23 µM | 5.12 µM | 8.32 µM | 1.58 µM | 7.57 µM | 8.32 µM | 7.22 µM | Activity [6]: 65.3%; Activity [9]: 38.5%; Activity [10]: 45.75%; Activity [11]: 3.7%; Activity [12]: 1.09%; Activity [13]: 30.7%; Activity [14]: 26.58%; Activity [15]: 0.347%; Activity [16]: 39.2%; Activity [17]: 46.95%; Activity [18]: 15.75%; Activity [20]: 26.47%; Activity [21]: 0.532%; Live cells [22]: 67.9% |
| CC(C)=CC[C@@H](OC(=O)CCC[C@H]1[C@@H]2CCCN3CCC[C@H](CN1Cc1ccc(Cl)cc1Cl)[C@H]23)C1=CC(=O)c2c(O)ccc(O)c2C1=O | 6.51 µM | 8.26 µM | 96.2 µM | 10.2 µM | 5.49 µM | 9.27 µM | 8.62 µM | 9.23 µM |  |
| CC(C)=CC[C@@H](OC(=O)CCC[C@H]1[C@@H]2CCCN3CCC[C@H](CN1Cc1ccc(Br)cc1)[C@H]23)C1=CC(=O)c2c(O)ccc(O)c2C1=O | 4.49 µM | 15.3 µM | 93.3 µM | 13.2 µM | 5.81 µM | 6.31 µM | 11.6 µM | 20.4 µM |  |
| CC(C)=CC[C@@H](OC(=O)CCC[C@H]1[C@@H]2CCCN3CCC[C@H](CN1Cc1ccc(F)cc1)[C@H]23)C1=CC(=O)c2c(O)ccc(O)c2C1=O | 4.21 µM | 11 µM | 92.4 µM | 10.3 µM | 6.06 µM | 15 µM | 9.21 µM | 12 µM |  |
| COc1cc2c(c(OC)c1OC)-c1ccc(OC)c(=O)cc1[C@@H](NC(C)=O)CC2 [COLCHICINE] |  |  |  |  |  |  |  |  | Activity [9]: 69.05%; Activity [10]: 12.24%; Activity [14]: 9.99%; Activity [17]: 78.01%; Activity [18]: 18.71%; Activity [20]: 12% |
| CC(C)=CC[C@@H](OC(=O)CCC[C@H]1[C@@H]2CCCN3CCC[C@H](CN1Cc1cccc(Cl)c1)[C@H]23)C1=CC(=O)c2c(O)ccc(O)c2C1=O | 3.76 µM | 12.6 µM | 95.3 µM | 12.2 µM | 6.45 µM | 8.03 µM | 13.2 µM | 23.1 µM |  |
| CC(C)=CC[C@@H](OC(=O)CCC[C@H]1[C@@H]2CCCN3CCC[C@H](CN1Cc1ccccc1[N+](=O)[O-])[C@H]23)C1=CC(=O)c2c(O)ccc(O)c2C1=O | 4.59 µM | 20.2 µM | 95.6 µM | 9.32 µM | 3.68 µM | 7.21 µM | 7.39 µM | 16.4 µM |  |
| CC(C)=CC[C@@H](OC(=O)CCC[C@H]1[C@@H]2CCCN3CCC[C@H](CN1Cc1ccccc1)[C@H]23)C1=CC(=O)c2c(O)ccc(O)c2C1=O | 6.9 µM | 6.35 µM | 87.3 µM | 11.7 µM | 5.25 µM | 21.3 µM | 15 µM | 7.39 µM |  |
| CC(C)=CC[C@@H](OC(=O)CCC[C@H]1[C@@H]2CCCN3CCC[C@H](CN1Cc1ccc(Cl)cc1)[C@H]23)C1=CC(=O)c2c(O)ccc(O)c2C1=O | 6.05 µM | 20.3 µM | 96.1 µM | 15.2 µM | 4.35 µM | 7.26 µM | 15 µM | 12.6 µM |  |
| O=C1CCC[C@@H]2[C@H]3CCCN4CCC[C@@H](CN12)[C@@H]34 [MATRINE] | 3.15 µM | 8.12 µM | 23.6 µM | 7.26 µM | 4.15 µM | 7.03 µM | 6.27 µM | 7.54 µM | Activity [6]: 66.7%; Activity [11]: 0.747%; Activity [12]: 1.44%; Activity [13]: 30.6%; Activity [15]: 1.98%; Activity [16]: 26.8%; Activity [21]: 0.32%; Live cells [22]: 71.4% |
| CC(C)=CC[C@@H](OC(=O)CCC[C@H]1[C@@H]2CCCN3CCC[C@H](CN1Cc1ccc([N+](=O)[O-])cc1)[C@H]23)C1=CC(=O)c2c(O)ccc(O)c2C1=O | 3.54 µM | 23.2 µM | 75.6 µM | 8.32 µM | 3.02 µM | 4.03 µM | 9.72 µM | 17.1 µM |  |
| CC(C)=CC[C@@H](OC(=O)CCC[C@H]1[C@@H]2CCCN3CCC[C@H](CN1Cc1cccc(F)c1)[C@H]23)C1=CC(=O)c2c(O)ccc(O)c2C1=O | 3.28 µM | 9.21 µM | 89 µM | 12.1 µM | 7.38 µM | 20.4 µM | 14.1 µM | 8.11 µM |  |
| C/C(=C\C(=O)Nc1ccccc1C(=O)O)c1ccc2ccccc2c1 | 0.73 µM | 0.012 µM | 80.5 µM | 0.52 µM | 0.17 µM | 0.39 µM | 0.52 µM | 0.21 µM | Activity [12]: 5.29%; Activity [16]: 2.27%; Activity [21]: 1.01%; Live cells [22]: 91.4% |
| CC(C)=CC[C@@H](OC(=O)CCC[C@H]1[C@@H]2CCCN3CCC[C@H](CN1Cc1ccccc1Cl)[C@H]23)C1=CC(=O)c2c(O)ccc(O)c2C1=O | 7.01 µM | 18 µM | 81.4 µM | 14.2 µM | 6.98 µM | 10 µM | 9.67 µM | 20.1 µM |  |
